The text below walks through data of patent US12257247B2 (Monte Rosa Therapeutics AG, priority 2023, dated 2025).

The test deals with T1, VAV1 (Homo sapiens, UniProt P15498+Q96SW2).
T1 construct: A heterozygous VAV1 C-terminal HiBiT knock-in pool was generated at Monte Rosa Therapeutics from a clonal Jurkat cell; endogenous in cells; host or cells: Jurkat clone stably expressing LgBiT, homozygous GSPT1-G575N; heterozygous VAV1-HiBiT knock-in pool
Description: VAV1 degradation activity, VAV1-HiBiT knock-in Jurkat luminescence assay (Example A, Table 1). To be noted: VAV1-HiBiT knock-in Jurkat cells, luminescence read at 6 and 24 hours; for Dmax: Jurkat. Format: cell-based. The procedure:
Cells were plated at 10,000 cells per well using Multiflo (BioTek) or Multi Drop Combi (Thermo Fisher) in 384-well white solid bottom plates (Corning, 3570BC) in 25 ul volume in RPMI 1640 media (Thermo Fischer, 22400105) containing 10% FBS (Corning, 35-075-CV), 1% Penicillin/Streptomycin (ThermoFisher Scientific, 15140-122), and 1% Endurazine (Nano-Glo Endurazine Live Cell Substrate (Promega, N2571)). Cells were incubated for ˜16 hours at 37° C., 5% CO2. 25 nL of a compound at 10 μM were dosed into the plate using an Echo® 650 liquid handler (Labcyte). Cells were incubated at 37° C., 5% CO2 and signal was read at 6 and 24 hours after compound addition on a Pherastar FSX using “LUM plus” optic module.
Analysis was performed in Scinamic (Scinamic, Cambridge, MA). Luminescence response (R) was calculated by the formula: response=100*(S−N)/(P−N) where S is the signal of the well, N and P the mean negative and positive control values respectively of the same plate. The luminescence response was then fitted in Scinamic using a 3-parameter agonist logistic fit (hillslope=1, EC50>0, top/bottom unconstrained).

Setting [1] is: read-out: VAV1 DC50 (nM), class.

Like-named read-outs stand apart in the source and are kept apart here. A value given as a limit tells only on which side of the number the result lay.

`CN(C)CCOc1ccc(-c2cccc(C3CCC(=O)NC3=O)c2Cl)cc1` (centres unmarked) [Compound 135]: the Dmax (read-out: VAV1 Dmax %) came out at 34.9% and the Dmax (read-out: VAV1 Dmax %, class) is less than 60%. Further, the DC50 reads like this: (read-out: VAV1 DC50) not below 10000 nM; under setting [1], more than 1000 nM.
Take `O=C1CCC(c2cccc(-c3ccc(OCCN4CCCC4)cc3)c2Cl)C(=O)N1` (centres unmarked) [Compound 136]: the Dmax by setting is: (read-out: VAV1 Dmax %) 40.9%; (read-out: VAV1 Dmax %, class) less than 60%. Further, the DC50 (read-out: VAV1 DC50) is not below 10000 nM and the half-maximal degradation concentration (DC50) under setting [1] is more than 1000 nM.
Take `COc1cc(OC(F)F)ccc1-c1cccc(C2CCC(=O)NC2=O)c1Cl` (centres unmarked) [Compound 137]: the Dmax is 63.8% (read-out: VAV1 Dmax %) and 60 to 90% (read-out: VAV1 Dmax %, class). Moreover, the DC50 reads like this: (read-out: VAV1 DC50) 7440 nM; under setting [1], more than 1000 nM.
For `Nc1cc(-c2cccc(C3CCC(=O)NC3=O)c2Cl)ccc1Cl` (centres unmarked) [Compound 138], in that order: 84.6%, 60 to 90%, 604 nM and 100 to 1000 nM.
On to `COc1ccc(-c2cccc(C3CCC(=O)NC3=O)c2Cl)cc1C#N` (centres unmarked) [Compound 139], for which the Dmax was 25.2% (read-out: VAV1 Dmax %) and less than 60% (read-out: VAV1 Dmax %, class). For the same compound, the DC50 was not below 10000 nM (read-out: VAV1 DC50) and more than 1000 nM under setting [1].
On to `O=C1CCC(c2cccc(-c3ccc(Cn4ccnc4)cc3)c2Cl)C(=O)N1` (centres unmarked) [Compound 140, 3-(4′-((1H-imidazol-1-yl)methyl)-2-chloro-[1,1′-biphenyl]-3-yl)piperidine-2,6-dione], for which the Dmax by setting is: (read-out: VAV1 Dmax %) 83.8%; (read-out: VAV1 Dmax %, class) 60 to 90%. For the same compound, the DC50 by setting is: (read-out: VAV1 DC50) 52.2 nM; under setting [1], not above 100 nM.
For `O=C1CCC(c2cccc(-c3ccc(OCC4CCOC4)cc3)c2Cl)C(=O)N1` (centres unmarked) [Compound 141], the Dmax (read-out: VAV1 Dmax %) worked out at 87.6% and the Dmax (read-out: VAV1 Dmax %, class) lay in the range of 60 to 90%. The DC50 is 99.2 nM (read-out: VAV1 DC50) and not above 100 nM under setting [1].
For `N#Cc1ccc(-c2cccc(C3CCC(=O)NC3=O)c2Cl)cc1` (centres unmarked) [Compound 142], the Dmax is, setting by setting: (read-out: VAV1 Dmax %) 69.9%; (read-out: VAV1 Dmax %, class) 60 to 90%. Besides, the DC50 by setting is: (read-out: VAV1 DC50) 705 nM; under setting [1], 100 to 1000 nM.
In the case of `O=C1CCC(c2c(F)ccc(-c3ccc(Cn4ccccc4=O)cc3)c2Cl)C(=O)N1` (centres unmarked) [Compound 143, 3-(2-chloro-4-fluoro-4′-((2-oxopyridin-1(2H)-yl)methyl)-[1,1′-biphenyl]-3-yl)piperidine-2,6-dione], the Dmax is 55% (read-out: VAV1 Dmax %) and less than 60% (read-out: VAV1 Dmax %, class). Further, the DC50 is 6160 nM (read-out: VAV1 DC50) and more than 1000 nM under setting [1].
As for `Cn1ccc(COc2ccc(-c3ccc(F)c(C4CCC(=O)NC4=O)c3Cl)cc2)n1` (centres unmarked) [Compound 144, 3-(2-chloro-4-fluoro-4′-((1-methyl-1H-pyrazol-3-yl)methoxy)-[1,1′-biphenyl]-3-yl)piperidine-2,6-dione], the Dmax by setting is: (read-out: VAV1 Dmax %) 65.3%; (read-out: VAV1 Dmax %, class) 60 to 90%. Besides, the DC50 (read-out: VAV1 DC50) came out at 248 nM and the DC50 under setting [1] is 100 to 1000 nM.
As to `Cn1ccc(COc2ccc(-c3ccc(Cl)c(C4CCC(=O)NC4=O)c3F)cc2)n1` (centres unmarked) [Compound 145, 3-(4-chloro-2-fluoro-4′-((1-methyl-1H-pyrazol-3-yl)methoxy)-[1,1′-biphenyl]-3-yl)piperidine-2,6-dione], the Dmax is 55.5% (read-out: VAV1 Dmax %) and less than 60% (read-out: VAV1 Dmax %, class). Besides, the DC50 reads like this: (read-out: VAV1 DC50) 13800 nM; under setting [1], more than 1000 nM.
Consider `Cn1ccc(COc2ccc(-c3ccc(Cl)c(C4CCC(=O)NC4=O)c3Cl)cc2)n1` (centres unmarked) [Compound 146, 3-(2,4-dichloro-4′-((1-methyl-1H-pyrazol-3-yl)methoxy)-[1,1′-biphenyl]-3-yl)piperidine-2,6-dione], for which the Dmax is, setting by setting: (read-out: VAV1 Dmax %) 81.5%; (read-out: VAV1 Dmax %, class) 60 to 90%. In addition, the DC50 was 8400 nM (read-out: VAV1 DC50) and more than 1000 nM under setting [1].
For `O=C1CCC(c2c(F)ccc(-c3ccc(Cn4ccccc4=O)cc3)c2F)C(=O)N1` (centres unmarked) [Compound 147, 3-(2,4-difluoro-4′-((2-oxopyridin-1(2H)-yl)methyl)-[1,1′-biphenyl]-3-yl)piperidine-2,6-dione], the “VAV1 Dmax %” value stood at 33.28%. In addition, the Dmax (read-out: VAV1 Dmax %) was 33.3%. Moreover, the maximal degradation (Dmax) (read-out: VAV1 Dmax %, class) was less than 60%. Also, where the note is “read-out: VAV1 DC50”, the DC50 is not below 10000 nM. The DC50 under setting [1] was more than 1000 nM.
For `COc1ccc(-c2ccc(F)c(C3CCC(=O)NC3=O)c2F)cc1C` (centres unmarked) [Compound 148], the Dmax was 21.4% (read-out: VAV1 Dmax %) and less than 60% (read-out: VAV1 Dmax %, class). Moreover, the 50% degradation concentration (DC50) is, setting by setting: (read-out: VAV1 DC50) not below 10000 nM; under setting [1], more than 1000 nM.
As for `O=C1CCC(c2cccc(-c3ccc(Cn4ccccc4=O)cc3)c2F)C(=O)N1` (centres unmarked) [Compound 149, 3-(2-fluoro-4′-((2-oxopyridin-1(2H)-yl)methyl)-[1,1′-biphenyl]-3-yl)piperidine-2,6-dione], the Dmax (read-out: VAV1 Dmax %) was determined as 89.6% and the Dmax (read-out: VAV1 Dmax %, class) is 60 to 90%. For the same compound, the DC50 is 91.5 nM (read-out: VAV1 DC50) and not above 100 nM under setting [1].
Take `Cn1ccc(COc2ccc(-c3cccc(C4CCC(=O)NC4=O)c3F)cc2)n1` (centres unmarked) [Compound 150, 3-(2-fluoro-4′-((1-methyl-1H-pyrazol-3-yl)methoxy)-[1,1′-biphenyl]-3-yl)piperidine-2,6-dione]: the Dmax is 84.2% (read-out: VAV1 Dmax %) and 60 to 90% (read-out: VAV1 Dmax %, class). Moreover, the DC50 is 48 nM (read-out: VAV1 DC50) and not above 100 nM under setting [1].
The corresponding values for `Cn1ccc(COc2ccc(-c3cccc(C4CCC(=O)NC4=O)c3)cc2)n1` (centres unmarked) [Compound 151, 3-(4′-((1-methyl-1H-pyrazol-3-yl)methoxy)-[1,1′-biphenyl]-3-yl)piperidine-2,6-dione] are 39.8%, less than 60%, not below 10000 nM and more than 1000 nM.
In the case of `Cc1cc(OCc2ccn(C)n2)ccc1-c1ccc(Cl)c(C2CCC(=O)NC2=O)c1` (centres unmarked) [Compound 152], the Dmax was 8.11% (read-out: VAV1 Dmax %) and less than 60% (read-out: VAV1 Dmax %, class). Further, the DC50 reads like this: (read-out: VAV1 DC50) not below 10000 nM; under setting [1], more than 1000 nM.
As to `Cn1ccc(COc2ccc(-c3ccc(Cl)c(C4CCC(=O)NC4=O)c3)c(Cl)c2)n1` (centres unmarked) [Compound 153, 3-(2′,4-dichloro-4′-((1-methyl-1H-pyrazol-3-yl)methoxy)-[1,1′-biphenyl]-3-yl)piperidine-2,6-dione], the Dmax is 1.26% (read-out: VAV1 Dmax %) and less than 60% (read-out: VAV1 Dmax %, class). In addition, the DC50 (read-out: VAV1 DC50) is not below 10000 nM and the DC50 under setting [1] is more than 1000 nM.
The corresponding values for `Cn1ccc(COc2ccc(-c3cccc(C4CCC(=O)NC4=O)c3Cl)cc2)n1` (centres unmarked) [Compound 154, 3-(2-chloro-4′-((1-methyl-1H-pyrazol-3-yl)methoxy)-[1,1′-biphenyl]-3-yl)piperidine-2,6-dione] are 97%, more than 90%, 18.7 nM and not above 100 nM.
For `Cc1cc(-c2cccc(C3CCC(=O)NC3=O)c2Cl)ccc1OCCN1CCOCC1` (centres unmarked) [Compound 155, 3-(2-chloro-3′-methyl-4′-(2-morpholinoethoxy)-[1,1′-biphenyl]-3-yl)piperidine-2,6-dione], in that order: 92.7%, more than 90%, 14.9 nM and not above 100 nM.
For `O=C1CCC(c2cccc(-c3ccc(Cn4ccccc4=O)cc3)c2Cl)C(=O)N1` (centres unmarked) [Compound 156, 3-(2-chloro-4′-((2-oxopyridin-1(2H)-yl)methyl)-[1,1′-biphenyl]-3-yl)piperidine-2,6-dione], the Dmax by setting is: (read-out: VAV1 Dmax %) 92%; (read-out: VAV1 Dmax %, class) more than 90%. In addition, the DC50 is 26 nM (read-out: VAV1 DC50) and not above 100 nM under setting [1].
